Key:
[1] = test system: (Caco-2) colonic epithelial cells; test: Luciferase reporter gene (pGL2) internalisation and expression in Caco-2 cells; format: cell-based; conditions: 5 μg pGL2 plasmid
Description: (§1) 5 μg of a luciferase reporter gene plasmid (pGL2 promega) was complexed with either the RGD-polylysine construct (possible structure of complex is shown in FIG. 1) or an equal concentration of polylysine in 100 μl of Optimem media (Gibco). The DNA/peptide complexes and also a DNA only control were then applied to 50% confluent cultured (Caco-2) colonic epithelial cells which were then allowed to express for 48 hours. The cells were then harvested and the cellular protein analysed for luciferase activity (Relative Light Units). The activity shown in FIG. 2 is adjusted to represent activity from 1 mg of cellular protein. In FIG. 2 the term "RGD peptide" is used to indicate the polylysine-integrin receptor binding protein described in Example 1.
The procedure described in Example 2 was repeated but using the polylysine-integrin receptor binding peptide described in Example 3 instead of the polylysine-integrin receptor binding peptide described in Example 1. Control experiments were also performed.
The polylysine-integrin receptor binding peptide of Example 1 was used in a repeat of the procedure of Example 2, but using 1 μg of luciferase reporter gene plasmid. The effect of chloroquine was also investigated.

COS-7 cells = test: Luciferase reporter gene transfection of COS-7 cells; format: cell-based; conditions: 200 μm chloroquine
Description: as §1
The polylysine-integrin receptor binding peptide of Example 1 was again used. Essentially the methodology of Example 2 was followed with the substitution of COS-7 cells, and the use of different concentrations of chloroquine. It can be seen that 200 μm chloroquine gave a 4-fold increase of expression, compared with no chloroquine.
The methodology of Example 2 was repeated using COS-7 cells. In this experiment, different ratios of the K16 RGD peptide DNA were used with and without 100 μm chloroquine, with the results shown in FIG. 7. It can be seen that the optimum ratio was 37.5:1 in both the absence and presence of chloroquine.

Compound | improvement of expression by addition of chloroquine ([1]; 100 μM chloroquine vs no chloroquine) [fold] | optimal peptide-DNA transfection efficiency (luciferase activity, Relative Light Units per mg cellular protein) ([1]; absence of chloroquine, 48 hours expression, indirect comparison of FIG. 2 and FIG. 3) | cytopathic effects (COS-7 cells)
(K)16 GGCRGDMFGCA [Example 3] | ~2 | ~6×10^7 RLU/mg | 
CCN(CC)CCCC(C)Nc1ccnc2cc(Cl)ccc12 (stereo not drawn) [chloroquine] |  |  | cytopathic effects of chloroquine were apparent
